The nature of the data set: Drug excretion in human subject rapid inactivator assessed as total isonicotinoyl compound level in urine at 670 mg, iv infused at constant rate 5.2min measured 227 mins after start of drug injection by colorimetry. The note with it: in vivo. In kind it is ADME, organism-based.

Consider `NNC(=O)c1ccncc1` [ISONIAZID], for which the Drug excretion is on record as 38.8 mg.

Values taken from ChEMBL document CHEMBL3785036 (J Pharm Sci, 1974).
